From US20240132431A1, “METHOD FOR ALKYLATING ACIDIC FUNCTIONAL GROUP” (Chugai Seiyaku Kabushiki Kaisha, priority 2021, published 2024)

Target: T1, Bcl-2 protein (Recombinant Human Bcl-2 Protein) (Homo sapiens, UniProt P10415)
T1 construct: purchased Novus NBP2-34889
Experiment: Binding evaluation of mixture library compounds to Bcl-2 using AS-MS (affinity selection mass spectrometry)
Outline: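 Pooled library of ~1200 compounds ([…] each, final) incubated with recombinant human Bcl-2 (20 μM final) in Tris-HCl pH 7.4, NaCl, Tween-20, DTT buffer, dark, 23° C., 1 h. Bound fraction recovered by SEC spin column, organic extraction, reversed-phase LC/MS. ASMS Ratio (%) = (A−C)/B×100 versus protein-free standard and SEC blank.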

T1 sequence (P10415 whole entry): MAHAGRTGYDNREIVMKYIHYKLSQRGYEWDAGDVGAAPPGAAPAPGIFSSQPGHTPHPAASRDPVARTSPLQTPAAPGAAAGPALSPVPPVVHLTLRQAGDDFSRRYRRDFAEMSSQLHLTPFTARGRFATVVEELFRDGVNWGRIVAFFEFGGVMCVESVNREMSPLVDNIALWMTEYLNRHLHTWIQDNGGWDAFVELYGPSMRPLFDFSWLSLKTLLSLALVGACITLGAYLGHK

SMILES | ASMS ratio (%) (n = 1) | ASMS ratio (%) (n = 2)
CCOc1cncc(C#Cc2cc(C(=O)N3CCN(c4ccc(C(=O)NS(C)(=O)=O)cc4)CC3)cc(C(F)(F)F)c2)c1 [B2I042-01, 4-[4-[3-[2-(5-Ethoxypyridin-3-yl)ethynyl]-5-(trifluoromethyl)benzoyl]piperazin-1-yl]-N-methylsulfonylbenzamide] | 0.0% | 0.0%
CCOc1cccc(-c2cnn(-c3cc(C(=O)N4CCN(c5ccc(C(=O)NS(C)(=O)=O)cc5)CC4)cc(C(F)(F)F)c3)c2)c1 [B2I043-01, 4-[4-[3-[4-(3-Ethoxyphenyl)pyrazol-1-yl]-5-(trifluoromethyl)benzoyl]piperazin-1-yl]-N-methylsulfonylbenzamide] | 0.0% | 0.0%
CCOc1cncc(-c2cnn(-c3cc(C(=O)N4CCN(c5ccc(C(=O)NS(C)(=O)=O)cc5)CC4)cc(C(F)(F)F)c3)c2)c1 [B2I044-01, 4-[4-[3-[4-(5-Ethoxypyridin-3-yl)pyrazol-1-yl]-5-(trifluoromethyl)benzoyl]piperazin-1-yl]-N-methylsulfonylbenzamide] | 0.0% | 0.0%
CCOc1cccc(-c2ccccc2CN2CCN(c3ccc(C(=O)NS(C)(=O)=O)cc3)CC2)c1 [B2I045-01, 4-[4-[[2-(3-Ethoxyphenyl)phenyl]methyl]piperazin-1-yl]-N-methylsulfonylbenzamide] | −0.3% | 0.2%
CCOc1cncc(-c2ccccc2CN2CCN(c3ccc(C(=O)NS(C)(=O)=O)cc3)CC2)c1 [B2I046-01, 4-[4-[[2-(5-Ethoxypyridin-3-yl)phenyl]methyl]piperazin-1-yl]-N-methylsulfonylbenzamide] | −0.6% | 1.5%
CCOc1cccc(-c2ccc(CN3CCN(c4ccc(C(=O)NS(C)(=O)=O)cc4)CC3)cc2C)c1 [B2I047-01] | 0.8% | 1.4%
CCOc1cncc(-c2ccc(CN3CCN(c4ccc(C(=O)NS(C)(=O)=O)cc4)CC3)cc2C)c1 [B2I048-01, 4-[4-[[4-(5-Ethoxypyridin-3-yl)-3-methylphenyl]methyl]piperazin-1-yl]-N-methylsulfonylbenzamide] | 0.0% | 0.0%
CCOc1cccc(-c2ccc(CN3CCN(c4ccc(C(=O)NS(C)(=O)=O)cc4)CC3)c(CC)c2)c1 [B2I049-01, 4-[4-[[4-(3-Ethoxyphenyl)-2-ethylphenyl]methyl]piperazin-1-yl]-N-methylsulfonylbenzamide] | 0.0% | 0.0%
CCOc1cncc(-c2ccc(CN3CCN(c4ccc(C(=O)NS(C)(=O)=O)cc4)CC3)c(CC)c2)c1 [B2I050-01, 4-[4-[[4-(5-Ethoxypyridin-3-yl)-2-ethylphenyl]methyl]piperazin-1-yl]-N-methylsulfonylbenzamide] | 0.0% | −1.5%
CCOc1cccc(-c2ccc(CN3CCN(c4ccc(C(=O)NS(C)(=O)=O)cc4)CC3)cc2F)c1 [B2I051-01, 4-[4-[[4-(3-Ethoxyphenyl)-3-fluorophenyl]methyl]piperazin-1-yl]-N-methylsulfonylbenzamide] | 0.0% | 0.0%
CCOc1cncc(-c2ccc(CN3CCN(c4ccc(C(=O)NS(C)(=O)=O)cc4)CC3)cc2F)c1 [B2I052-01, 4-[4-[[4-(5-Ethoxypyridin-3-yl)-3-fluorophenyl]methyl]piperazin-1-yl]-N-methylsulfonylbenzamide] | 0.0% | 0.0%
CCOc1cccc(-c2ccc(CN3CCN(c4ccc(C(=O)NS(C)(=O)=O)cc4)CC3)c(OC)c2)c1 [B2I053-01] | 0.0% | 0.0%
CCOc1cncc(-c2ccc(CN3CCN(c4ccc(C(=O)NS(C)(=O)=O)cc4)CC3)c(OC)c2)c1 [B2I054-01, 4-[4-[[4-(5-Ethoxypyridin-3-yl)-2-methoxyphenyl]methyl]piperazin-1-yl]-N-methylsulfonylbenzamide] | 0.0% | 0.0%
CCOc1cccc(-c2cc(CN3CCN(c4ccc(C(=O)NS(C)(=O)=O)cc4)CC3)cc(OCC)c2)c1 [B2I055-01, 4-[4-[[3-Ethoxy-5-(3-ethoxyphenyl)phenyl]methyl]piperazin-1-yl]-N-methylsulfonylbenzamide] | 0.0% | 0.0%
CCOc1cncc(-c2cc(CN3CCN(c4ccc(C(=O)NS(C)(=O)=O)cc4)CC3)cc(OCC)c2)c1 [B2I056-01] | 0.0% | 0.0%
CCOc1cccc(-c2cc(CN3CCN(c4ccc(C(=O)NS(C)(=O)=O)cc4)CC3)cc(OC(C)C)c2)c1 [B2I057-01, 4-[4-[[3-(3-Ethoxyphenyl)-5-propan-2-yloxyphenyl]methyl]piperazin-1-yl]-N-methylsulfonylbenzamide] | 0.0% | 0.0%
CCOc1cncc(-c2cc(CN3CCN(c4ccc(C(=O)NS(C)(=O)=O)cc4)CC3)cc(OC(C)C)c2)c1 [B2I058-01, 4-[4-[[3-(5-Ethoxypyridin-3-yl)-5-propan-2-yloxyphenyl]methyl]piperazin-1-yl]-N-methylsulfonylbenzamide] | 0.0% | 0.0%

SMILES | ASMS ratio (%) (n = 1) | ASMS ratio (%) (n = 2)
CCOc1cccc(-c2cc(OC)c(CN3CCN(c4ccc(C(=O)NS(C)(=O)=O)cc4)CC3)c(OC)c2)c1 [B2I059-01] | 0.0% | 0.0%
CCOc1cncc(-c2cc(OC)c(CN3CCN(c4ccc(C(=O)NS(C)(=O)=O)cc4)CC3)c(OC)c2)c1 [B2I060-01] | 0.0% | 0.0%
CCOc1cccc(-c2cc(CN3CCN(c4ccc(C(=O)NS(C)(=O)=O)cc4)CC3)cc(C(F)(F)F)c2)c1 [B2I061-01, 4-[4-[[3-(3-Ethoxyphenyl)-5-(trifluoromethyl)phenyl]methyl]piperazin-1-yl]-N-methylsulfonylbenzamide] | −0.8% | 0.5%
CCOc1cncc(-c2cc(CN3CCN(c4ccc(C(=O)NS(C)(=O)=O)cc4)CC3)cc(C(F)(F)F)c2)c1 [B2I062-01, 4-[4-[[3-(5-Ethoxypyridin-3-yl)-5-(trifluoromethyl)phenyl]methyl]piperazin-1-yl]-N-methylsulfonylbenzamide] | 0.0% | 0.0%
CCOc1cccc(-c2cc(CN3CCN(c4ccc(C(=O)NS(C)(=O)=O)cc4)CC3)cc(OC(F)(F)F)c2)c1 [B2I063-01, 4-[4-[[3-(3-Ethoxyphenyl)-5-(trifluoromethoxy)phenyl]methyl]piperazin-1-yl]-N-methylsulfonylbenzamide] | 0.9% | 0.0%
CCOc1cncc(-c2cc(CN3CCN(c4ccc(C(=O)NS(C)(=O)=O)cc4)CC3)cc(OC(F)(F)F)c2)c1 [B2I064-01, 4-[4-[[3-(5-Ethoxypyridin-3-yl)-5-(trifluoromethoxy)phenyl]methyl]piperazin-1-yl]-N-methylsulfonylbenzamide] | 0.0% | 0.0%
CCOc1cccc(-c2ccc(CN3CCN(c4ccc(C(=O)NS(C)(=O)=O)cc4)CC3)c3ccccc23)c1 [B2I065-01, 4-[4-[[4-(3-Ethoxyphenyl)naphthalen-1-yl]methyl]piperazin-1-yl]-N-methylsulfonylbenzamide] | 0.0% | 0.0%
CCOc1cncc(-c2ccc(CN3CCN(c4ccc(C(=O)NS(C)(=O)=O)cc4)CC3)c3ccccc23)c1 [B2I066-01, 4-[4-[[4-(5-Ethoxypyridin-3-yl)naphthalen-1-yl]methyl]piperazin-1-yl]-N-methylsulfonylbenzamide] | 0.0% | 0.0%
CCOc1cccc(-c2csc(CN3CCN(c4ccc(C(=O)NS(C)(=O)=O)cc4)CC3)c2)c1 [B2I067-01, 4-[4-[[4-(3-Ethoxyphenyl)thiophen-2-yl]methyl]piperazin-1-yl]-N-methylsulfonylbenzamide] | 0.0% | 0.0%
CCOc1cncc(-c2csc(CN3CCN(c4ccc(C(=O)NS(C)(=O)=O)cc4)CC3)c2)c1 [B2I068-01] | 0.0% | 0.0%
CCOc1cccc(C#Cc2ccccc2CN2CCN(c3ccc(C(=O)NS(C)(=O)=O)cc3)CC2)c1 [B2I069-01] | 0.0% | −2.2%
CCOc1cncc(C#Cc2ccccc2CN2CCN(c3ccc(C(=O)NS(C)(=O)=O)cc3)CC2)c1 [B2I070-01, 4-[4-[[2-[2-(5-Ethoxypyridin-3-yl)ethynyl]phenyl]methyl]piperazin-1-yl]-N-methylsulfonylbenzamide] | – | 0.0%
CCOc1cccc(-c2ccccc2CN2CCN(c3ccc(C(=O)NS(C)(=O)=O)nn3)CC2)c1 [B2I071-01, 6-[4-[[2-(3-Ethoxyphenyl)phenyl]methyl]piperazin-1-yl]-N-methylsulfonylpyridazine-3-carboxamide] | −1.2% | −1.9%
CCOc1cncc(-c2ccccc2CN2CCN(c3ccc(C(=O)NS(C)(=O)=O)nn3)CC2)c1 [B2I072-01, 6-[4-[[2-(5-Ethoxypyridin-3-yl)phenyl]methyl]piperazin-1-yl]-N-methylsulfonylpyridazine-3-carboxamide] | 0.8% | 1.3%
CCOc1cccc(-c2ccc(CN3CCN(c4ccc(C(=O)NS(C)(=O)=O)nn4)CC3)cc2C)c1 [B2I073-01, 6-[4-[[4-(3-Ethoxyphenyl)-3-methylphenyl]methyl]piperazin-1-yl]-N-methylsulfonylpyridazine-3-carboxamide] | 0.0% | 0.0%
CCOc1cncc(-c2ccc(CN3CCN(c4ccc(C(=O)NS(C)(=O)=O)nn4)CC3)cc2C)c1 [B2I074-01, 6-[4-[[4-(5-Ethoxypyridin-3-yl)-3-methylphenyl]methyl]piperazin-1-yl]-N-methylsulfonylpyridazine-3-carboxamide] | 0.0% | −8.4%
